The subject of one assay is JNK. Put plainly: TLR-3 signal pathway western blot, total protein: JNK phosphorylation. The assay is classed as cell-based, human. Conditions: THP-1 cells, 30 μM, 60 μM, and 100 μM 1 hour prior to 50 μg/ml poly (I:C) for 3 hours; concentration-dependent. The method, then: (§1) First, THP-1 cells were prepared at a density of 1.5×10^6 cells/well and cultured in culture medium RPMI 1640 which lacks FBS for 12 hours. Then, the cells were treated with the compound of Formula 1 at a concentration of 30 μM, 60 μM, and 100 μM 1 hour prior to the poly(I:C) treatment, and then treated with 50 μg/ml of poly (I:C) for 3 hours. After 3 hours of treatment, the cells were placed in a tube and pelleted down by centrifugation to remove cell media, washed with PBS once. Subsequently, the cells were added with NE-PER Nuclear extraction reagents (Thermo scientific) and cell lysis buffer to isolate nuclear extract and total protein extract which were then subject to western blot analysis. For the nuclear extract, the level of NFkB and c-Fos was monitored, and for the total protein extract, the level of MAPKs, IKK isoforms, and IRF3 was measured. […] Furthermore, the phosphorylation of MAPKs, i.e., ERK, JNK, and p-38 which act before AP-1 activation in the pathway was reduced by the compound of Formula 1 in a concentration-dependent manner (FIG. 9e).

The subject of assay [1] is IRF3. Put plainly: IRF3 activity/phosphorylation in THP-1 cells, western blot. The assay is classed as cell-based, human. The conditions noted are these: treated with the compound only. A general note: A western blot detects proteins with antibodies after separation by electrophoresis.
Procedure: First, in order to investigate the effects of the extract in activation of IRF3, THP-1 cells were prepared at a density of 1.5×10^6 cells/well and treated with 30 μg/ml of S. flavescens extract, 60 μg/ml of water fraction thereof, or 30 μg/ml of chloroform fraction thereof for 2 hours. After 2 hours of treatment with the extract and fractions thereof, the cells were put into tubes and pelleted down through centrifugation to remove culture media. Then the cell pellet was washed with PBS once and treated with cell lysis buffer to isolate total protein extracts, which were then subjected to western blot analysis. In this analysis, IRF3 protein level was measured.
Another assay deals with IFN-β. Put plainly: IFN-β expression in THP-1 cells, Real-time PCR. The format is cell-based, human. Conditions: 10 μM, 30 μM, and 60 μM for 6 hours.
The subject of another assay is IKK. Nature of the assay: TLR-3 signal pathway western blot, total protein: IKK phosphorylation. Conditions: THP-1 cells, 30 μM, 60 μM, and 100 μM 1 hour prior to 50 μg/ml poly (I:C) for 3 hours; concentration-dependent. The assay is classed as cell-based, human. The method, then:
as §1

The subject of a further assay is ERK. Nature of the assay: TLR-3 signal pathway western blot, total protein: ERK phosphorylation. The assay is classed as cell-based, human. The conditions noted are these: THP-1 cells, 30 μM, 60 μM, and 100 μM 1 hour prior to 50 μg/ml poly (I:C) for 3 hours; concentration-dependent. On the procedure:
as §1

The subject of a further assay is c-Fos. Nature of the assay: TLR-3 signal pathway western blot, nuclear extract: c-Fos. The assay is classed as cell-based, human. Conditions: THP-1 cells, 30 μM, 60 μM, and 100 μM 1 hour prior to 50 μg/ml poly (I:C) for 3 hours; concentration-dependent. The method, then:
as §1

For another assay, the system named is TRIF-CFP. Nature of the assay: Distribution of TRIF-CFP in transfected THP-1 cells treated with poly (I:C), confocal microscope. The conditions noted are these: THP-1 cells transfected with pcDNA3-TRIF-CFP, 30 μM, then 50 μg/ml poly (I:C) for 1 hour. The assay is classed as cell-based, human. On the procedure: In order to monitor the changes in distribution of TRIF-CFP in vivo by the compound of Formula 1, THP-1 cells (1×10^6 cells/well) were transfected with 0.5 μg of pcDNA3-TRIF-CFP plasmid by using Nucleofector kit V (Lonza, Switzerland) and cultured at 37° C. for 2 days. Then, the transfected cells were placed in 8-chamber slide coated with Poly-L-Lysine and treated with the compound of Formula 1 at 30 μM, and treated with 50 μg/ml of poly (I:C) for 1 hour. After removing the supernatant, the cells were washed with PBS three times, and fixed onto the slide by applying 200 μl of 4% paraformaldehyde and slowfade gold antifade reagent. Then the changes in the distribution of TRIF-CFP were monitored under carl zeins LSM 510 META confocal microscope.

In another assay the test system is NFkB p65. Nature of the assay: TLR-3 signal pathway western blot, nuclear extract: NFkB p65. Conditions: THP-1 cells, 30 μM, 60 μM, and 100 μM 1 hour prior to 50 μg/ml poly (I:C) for 3 hours; concentration-dependent. The assay is classed as cell-based, human. On the procedure: as §1
In another assay the test system is rotavirus 205-1. Nature of the assay: Proliferation of rotavirus 205-1 in TF-104 cells. The format is cell-based, porcine rotavirus. Conditions: 30 μM.
Assay [2] deals with IRF3. Nature of the assay: IRF3 activation in THP-1 cells treated with poly (I:C), western blot. The assay is classed as cell-based, human. The conditions noted are these: 30 μM and 60 μM for 1 hour, then 50 μg/ml poly (I:C) for 3 hours, compared to poly (I:C) only. The method, then:
First, in order to investigate the effect of the extract in IRF3 activation, THP-1 cells were prepared at a density of 1.5×10^6 cells/well, and treated with the compound of Formula 1 at a concentration of 30 μM and 60 μM for 1 hour and then treated with 50 μg/ml of poly (I:C) for 3 hours. After 3 hours of treatment, the cells were placed in a tube and pelleted down through centrifugation to remove cell media, which was then washed with PBS once and mixed with NE-PER Nuclear extraction reagent (Thermo scientific) and cell lysis buffer to isolate nuclear extract and total protein extract. The isolated extracts were subject to western blot analysis.

Another assay relates to IkB. Nature of the assay: TLR-3 signal pathway western blot, total protein: IkB phosphorylation. The format is cell-based, human. Conditions: THP-1 cells, 30 μM, 60 μM, and 100 μM 1 hour prior to 50 μg/ml poly (I:C) for 3 hours; concentration-dependent. On the procedure:
as §1

Assay [3] has as its system rotavirus KJ56-1 (bovine rotavirus, G8P[7]). Put plainly: Proliferation of rotavirus KJ56-1 in TF-104 cells. The format is cell-based. The conditions noted are these: MOI 0.01, 30 μM, 3 days. On the procedure:
In order to investigate the inhibitory effects of the above-disclosed compounds represented by Formulas 1 to 8 against proliferation of rotavirus, the following experiment was conducted using the fetal rhesus monkey kidney cell line TF-104. First, TF-104 cells (1×10^5 cells/well) were treated with rotavirus KJ56-1 (bovine rotavirus, […][7]) with multiplicity of infection (MOI) of 0.01 for 1 hour. Then the supernatant was removed from the cell pellet, and the pelleted cells were added to EMEM medium mixed with 1 μg/ml of trypsin and compounds of Formulas 1 to 8 and cultured at 37° C. for 3 days.

For a further assay, the system named is p-38. Put plainly: TLR-3 signal pathway western blot, total protein: p-38 phosphorylation. The format is cell-based, human. The conditions noted are these: THP-1 cells, 30 μM, 60 μM, and 100 μM 1 hour prior to 50 μg/ml poly (I:C) for 3 hours; concentration-dependent. The method, then:
as §1

Procedure for IFN-β: After 6 hours of treatment, the cells were placed in tubes and pelleted down through centrifugation to remove cell media, which was then washed with PBS once and RNA was extracted from the washed cells by using RNeasy Mini Elute Cleanup kit. The concentration and purity of RNA extract was measured by using 2100 Bioanalyzer system (Agilent Technologies), and cDNA was synthesized from this RNA extract by using Taqman reverse transcription reagents kit (Applied Biosystems). The expression level of IFN-β was measured by running Real-time PCR using SYBR Green PCR master mix kit (Applied Biosystem).
Subsequently, in order to investigate the effect of compound of Formula 1 in expression of IFN-β which is induced by IRF3 activation, the compound of Formula 1 was added to the cell group at a concentration of 10 μM, 30 μM, and 60 μM for 6 hours and then the expression level of IFNβ was measured.

`C=C(C)C(CCC(C)(C)O)Cc1c(O)cc(O)c2c1OC(c1ccc(O)cc1O)CC2=O` (stereo not shown) [Formula 1, 5,7,2′,4′-trihydroxy-8-(5-hydroxy-2-isoprenyl-5-methyl-hexyl-)flavanone]: the “phosphorylation of JNK” value in the assay with JNK is “reduced”. Also, in the assay on IRF3 [1], the IRF3 activity result is “concentration-dependent increased”. In addition, the IFN-β expression result in the assay with IFN-β is reported as “concentration-dependent increase”. In the assay with IKK, the “phosphorylation of IKK” value was “reduced”. The “phosphorylation of ERK” value in the assay with ERK was “reduced”. For the same compound, in the assay with c-Fos, the “transport of c-Fos to nucleus” value is listed as “reduced”. Also, the “distribution of TRIF-CFP” value in the assay on TRIF-CFP is on record as “even distribution of TRIF-CFP in the cytoplasm”. In the assay with NFkB p65, the “transport of NFkB p65 to nucleus” value is on record as “reduced”. Moreover, the “proliferation of rotavirus 205-1” value in the assay with rotavirus 205-1 was “significantly inhibited”. The IRF3 activation result with IRF3 [2] is “higher level of IRF3 activation”. Also, the “phosphorylation of IkB” value with IkB is “reduced”. For the same compound, the “proliferation of rotavirus KJ56-1” value in [3] is listed as “significantly inhibited”. Also, the “phosphorylation of p-38” value in the assay with p-38 was “reduced”.

These data come from patent publication US9326968B2, “Composition for enhancing immunity containing compounds represented by chemical formulas 1-8 or sophora flavescens extract as active ingredient” (Korea Research Institute of Bioscience and Biotechnology, priority 2010, dated 2016).
